We go through nine molecules from US7329657B2, “Indazolyl-substituted pyrroline compounds as kinase inhibitors” (Ortho-McNeil Pharmaceutical, Inc., priority 2000, dated 2008).

What all share (type): biochemical
One test has as its target PKC α (Homo sapiens, UniProt P17252). Kind of test: Protein Kinase C Histone-Based Assay, α isoform. To be noted: histone III substrate, 30 μM ATP, 10 min at 30° C.; read-out: PKC Activity (IC50 μM, Histone Based Assay) Alpha. As to the method: (§1) Compounds were evaluated for PKC selectivity using histone III as the substrate. […] The reaction was incubated for 10 min at 30° C. Reactions were terminated by TCA precipitation and spotting on Whatman P81 filters. Filters were washed in 75 mM phosphoric acid and the radioactivity quantified by liquid scintillation counting.

A further test addresses PKC γ (Homo sapiens, UniProt P05129). Kind of test: Protein Kinase C Histone-Based Assay, γ isoform. To be noted: histone III substrate, 30 μM ATP, 10 min at 30° C.; read-out: PKC Activity (IC50 μM, Histone Based Assay) Gamma. As to the method: as §1
The target in another test is PKC β-II (Homo sapiens, UniProt P05771). The experiment in a line: Protein Kinase C Histone-Based Assay, β-II isoform. As to conditions: histone III substrate, 30 μM ATP, 10 min at 30° C.; read-out: PKC Activity (IC50 μM, Histone Based Assay) Beta II. As to the method:
as §1

Test [1] concerns the target T1, recombinant rabbit GSK-3β protein (Oryctolagus cuniculus, UniProt G1T8E2).
T1 construct: purchased New England Biolabs
Kind of test: Glycogen Synthase Kinase-3 Assay. To be noted: PPI-2 substrate, 33P-ATP, 90 minutes at 30° C. As to the method:
Compounds were tested for the ability to inhibit recombinant rabbit GSK-3β protein using the following protocol. The test compound was added to a reaction mixture containing Protein phosphatase inhibitor-2 (PPI-2) (Calbiochem) (45 ng), rabbit GSK-3β protein (New England Biolabs) (0.75 units) and ^33P-ATP (1 μCi) in 50 mM Tris-HCl (pH 8.0), 10 mM MgCl2, 0.1% BSA, 1 mM DTT and 100 μM Sodium Vanadate. The mixture was reacted for 90 minutes at 30° C. to allow phosphorylation of the PPI-2 protein and then the protein in the reaction was precipitated using 10% TCA. The precipitated protein was collected on filter plates (MultiScreen-DV/Millipore), which were subsequently washed. Finally, the radioactivity was quantified using a TopCount Scintillation Counter (Packard).

Sequence of PKC β-II (P05771 1-673 isoform P05771-2): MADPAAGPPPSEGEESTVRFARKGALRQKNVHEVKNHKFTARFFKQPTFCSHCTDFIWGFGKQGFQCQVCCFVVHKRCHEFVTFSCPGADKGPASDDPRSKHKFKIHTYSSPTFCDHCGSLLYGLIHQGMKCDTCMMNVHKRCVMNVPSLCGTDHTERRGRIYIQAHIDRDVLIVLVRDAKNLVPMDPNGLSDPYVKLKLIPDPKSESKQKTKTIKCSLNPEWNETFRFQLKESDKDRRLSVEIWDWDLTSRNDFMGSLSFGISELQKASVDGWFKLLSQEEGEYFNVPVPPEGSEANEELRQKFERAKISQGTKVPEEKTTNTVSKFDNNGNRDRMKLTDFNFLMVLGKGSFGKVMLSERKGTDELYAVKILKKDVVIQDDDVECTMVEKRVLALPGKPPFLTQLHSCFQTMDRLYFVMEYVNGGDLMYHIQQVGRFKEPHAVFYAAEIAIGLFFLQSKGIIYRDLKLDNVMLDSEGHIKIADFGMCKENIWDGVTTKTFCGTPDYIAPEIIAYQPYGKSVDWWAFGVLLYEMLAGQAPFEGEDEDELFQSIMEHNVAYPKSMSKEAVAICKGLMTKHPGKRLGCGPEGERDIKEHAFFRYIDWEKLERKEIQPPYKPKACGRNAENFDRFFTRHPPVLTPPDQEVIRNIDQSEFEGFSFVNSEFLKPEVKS
T1 sequence (G1T8E2 1-432): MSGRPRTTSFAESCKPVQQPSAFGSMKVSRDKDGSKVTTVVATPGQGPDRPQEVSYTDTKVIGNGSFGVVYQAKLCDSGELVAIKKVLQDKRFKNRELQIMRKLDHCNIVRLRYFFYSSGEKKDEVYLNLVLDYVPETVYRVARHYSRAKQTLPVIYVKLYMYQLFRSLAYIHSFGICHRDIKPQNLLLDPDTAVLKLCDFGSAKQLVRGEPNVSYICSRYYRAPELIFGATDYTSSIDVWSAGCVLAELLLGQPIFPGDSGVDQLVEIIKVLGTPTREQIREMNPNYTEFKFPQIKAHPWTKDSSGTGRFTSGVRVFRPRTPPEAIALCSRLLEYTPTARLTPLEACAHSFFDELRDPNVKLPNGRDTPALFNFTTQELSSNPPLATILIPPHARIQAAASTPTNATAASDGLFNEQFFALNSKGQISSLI

The IC50 is the concentration that inhibits the measured activity by half. For `O=C1NC(=O)C(c2nn(CCCN3CCOCC3)c3ccccc23)=C1c1cn(-c2cccnc2)c2ccccc12` [Compound 68, 3-[1-[3-(4-morpholinyl)propyl]-1H-indazol-3-yl]-4-[1-(3-pyridinyl)-1H-indol-3-yl]-1H-pyrrole-2,5-dione], the IC50 on PKC α was determined as 0.217 µM; on PKC γ, 0.426 µM; at PKC β-II, 0.011 µM; in test [1] it was 0.096 µM.

In the case of `CN(CCO)CCCn1nc(C2=C(c3cn(-c4cccnc4)c4ccccc34)C(=O)NC2=O)c2ccccc21` [Compound 114, 3-[1-[3-[(2-hydroxyethyl)methylamino]propyl]-1H-indazol-3-yl]-4-[1-(3-pyridinyl)-1H-indol-3-yl]-1H-pyrrole-2,5-dione], the IC50 on PKC α was 0.047 µM; at PKC γ, 0.038 µM; on PKC β-II, 0.004 µM; in test [1], 0.155 µM.

On to `CCn1cc(C2=C(c3nn(CCCN(C)C)c4ccccc34)C(=O)NC2=O)c2cc(Cl)ccc21` [Compound 46, 3-(5-chloro-1-ethyl-1H-indol-3-yl)-4-[1-[3-(dimethylamino)propyl]-1H-indazol-3-yl]-1H-pyrrole-2,5-dione], for which the IC50 was found to be 0.308 µM on PKC α, 0.123 µM at PKC γ, 0.005 µM at PKC β-II and 0.01 µM in test [1].

On to `C=Cn1cc(C2=C(c3nn(CCCN(C)C)c4ccccc34)C(=O)NC2=O)c2ccccc21` [Compound 3, 3-[1-[3-(dimethylamino)propyl]-1H-indazol-3-yl]-4-(1-ethenyl-1H-indol-3-yl)-1H-pyrrole-2,5-dione], for which the IC50 at PKC α amounted to 0.248 µM; at PKC γ it was 0.323 µM; at PKC β-II, 0.023 µM; in test [1], 0.049 µM.

In the case of `CN(CCO)CCCn1nc(C2=C(c3cn(C)c4ccc(Cl)cc34)C(=O)NC2=O)c2ccccc21` [Compound 79, 3-(5-chloro-1-methyl-1H-indol-3-yl)-4-[1-[3-[(2-hydroxyethyl)methylamino]propyl]-1H-indazol-3-yl]-1H-pyrrole-2,5-dione], the IC50 was found to be 0.065 µM on PKC α, 0.074 µM at PKC γ, 0.007 µM at PKC β-II and 0.014 µM in test [1].

Turning to `Cn1cc(C2=C(c3nn(CCCN4CCOCC4)c4ccccc34)C(=O)NC2=O)c2cc(Cl)ccc21` [Compound 78, 3-(5-chloro-1-methyl-1H-indol-3-yl)-4-[1-[3-(4-morpholinyl)propyl]-1H-indazol-3-yl]-1H-pyrrole-2,5-dione], the IC50 was 0.94 µM on PKC α, 0.53 µM on PKC γ, 0.016 µM on PKC β-II and 0.041 µM in test [1].

As to `O=C1NC(=O)C(c2nn(CCCO)c3ccccc23)=C1c1cn(-c2cnc3ccccc3c2)c2ccccc12` [Compound 107, 3-[1-[3-hydroxypropyl]-1H-indazol-3-yl]-4-[1-(3-quinolinyl)-1H-indol-3-yl]-1H-pyrrole-2,5-dione], the IC50 was 0.098 µM at PKC α, 0.018 µM on PKC γ, 0.009 µM at PKC β-II and 0.82 µM in test [1].

With `CN1CCN(CCCn2nc(C3=C(c4cn(C)c5ccc(Cl)cc45)C(=O)NC3=O)c3ccccc32)CC1` [Compound 77, 3-(5-chloro-1-methyl-1H-indol-3-yl)-4-[1-[3-(4-methyl-1-piperazinyl)propyl]-1H-indazol-3-yl]-1H-pyrrole-2,5-dione], the IC50 on PKC α was found to be 0.354 µM; on PKC γ, 0.89 µM; at PKC β-II, 0.046 µM; in test [1], 0.043 µM.

Consider “3-(1-ethyl-1H-indol-3-yl)-4-[1-[3-(4-morpholinyl)propyl]-1H-indazol-3-yl]-1H-pyrrole-2,5-dione [Compound 69]”, for which the concentration for half-maximal inhibition (IC50) on PKC α amounted to 0.25 µM; at PKC γ, 0.55 µM; on PKC β-II it was 0.014 µM; in test [1] it was 0.018 µM.
